This test concerns mold fungi. The test can be described thus: Coatings test: mold resistance of emulsion paint (formula A). As to the method: The substance under test was incorporated into the test paint, at the stated concentration, using a dissolver.
The procedure for testing the emulsion paints for mold resistance was as follows:
The coating material under test was applied to both sides of a suitable substrate. In order to obtain realistic results, one portion of the test specimens was leached with running water (24 h, 20° C.) prior to the test for mold resistance; a further portion was treated with a warm stream of fresh air (7 days, 40° C.).
The samples thus prepared were then placed on an agar nutrient medium, and both samples and nutrient medium were contaminated with fungal spores. Inspection took place after 2-3 weeks' storage (29±1° C., 80-90% relative humidity).
Contamination was carried out using spores of the following mold fungi which are known to destroy coating materials or which are frequently encountered on coatings:
Alternaria tennis Aspergillus flavus Aspergillus niger Aspergillus ustus Cindosporum herbarum Paecilomyces variotii Penicillum citrium Aureobasidium pullulans Stachybotrys chartarum

The results in this text go back to US20110009268A1, “IPBC-CONTAINING COACERVATES” (priority 2006, published 2011).

On to `CCCCNC(=O)OCC#CI` [pure IPBC, 3-iodo-2-propynyl butylcarbamate], for which the “mold resistance of coating” value (0.08% based on solids content of the emulsion paint, without leaching and wind tunnel exposure) is on record as “mold-resistant”. Besides, the “activity of coating against mold” value (0.16% based on solids content of the emulsion paint, after leaching and wind tunnel exposure) is given as “active”.
